# Values of other authors in US20230123388A1 (GLANIS PHARMACEUTICALS, INC., priority 2020, published 2023).
# Where a name gives a salt, the structure may show the parent alone. Read-outs that look alike come from different tables or passages of the source.
# How the values were obtained:
# [1] = not given; remark: listed apart in the source
# [2] = system: albumin and apha1-acid glycoprotein
solubility in alcohol (alcohol),solubility in chloroform (chloroform),solubility in ether (ether),solubility in water (water),time of peak concentration ([1]; 200 mg oral dose),"peak concentration in blood ([1]; 200 mg oral dose, blood)","plasma concentration (peak) ([1]; 200 mg oral dose, plasma)",terminal half-life ([1]; based on blood concentration) [days],terminal half-life ([1]; based on the plasma concentration profile) [days],clearance ([1]; in vivo) [L/h],half-life ([1]; in vivo) [days],"volume of distribution ([1]; in vivo, listed as HCQ)",oral bioavailability ([1]; oral tablet),"bioavailability ([1]; randomized cross over study, 155 mg dose oral and IV infusion)",protein binding [2] [%],Structure (SMILES)
practically insoluble,practically insoluble,practically insoluble,freely soluble,,,,,,,,,,,,CCN(CCO)CCCC(C)Nc1ccnc2cc(Cl)ccc12 (stereo not drawn) [Hydroxychloroquine sulfate]
,,,,around 3 hours,around 129.6 ng/ml,around 50.3 ng/ml,30 to 60,~32,15.5,~2.08,very large and high,about 75%,0.74,~40,CCN(CCO)CCCC(C)Nc1ccnc2cc(Cl)ccc12 (stereo not drawn) [Hydroxychloroquine]
